# According to ChEMBL document CHEMBL4138146, “A Schmidt rearrangement-mediated synthesis of novel tetrahydro-benzo[1,4]diazepin-5-ones as potential anticancer and antiprotozoal agents” (Eur J Med Chem, 2017):
# Key:
# Assay type in all cases: functional
# 786-0 [1] = experiment: Growth inhibition of human 786-0 cells assessed as cell growth at 10^-4 M incubated for 48 hrs by sulforhodamine B assay relative to control; conditions: 786-0, 48 h, read-out: Activity
# NCI-H23 [2] = experiment: Growth inhibition of human NCI-H23 cells assessed as cell growth at 10^-5 M incubated for 48 hrs by sulforhodamine B assay relative to control; conditions: NCI-H23, 48 h, read-out: Activity
# RXF 393 = experiment: Growth inhibition of human RXF393 cells assessed as cell growth at 10^-5 M incubated for 48 hrs by sulforhodamine B assay relative to control; conditions: RXF 393, 48 h, read-out: Activity
# 786-0 [3] = experiment: Growth inhibition of human 786-0 cells assessed as cell growth at 10^-7 M incubated for 48 hrs by sulforhodamine B assay relative to control; conditions: 786-0, 48 h, read-out: Activity
# OVCAR-4 = experiment: Growth inhibition of human OVCAR4 cells assessed as cell growth at 10^-7 M incubated for 48 hrs by sulforhodamine B assay relative to control; conditions: OVCAR-4, 48 h, read-out: Activity
# NCI-H226 = experiment: Growth inhibition of human NCI-H226 cells assessed as cell growth at 10^-5 M incubated for 48 hrs by sulforhodamine B assay relative to control; conditions: NCI-H226, 48 h, read-out: Activity
# NCI-H522 [4] = experiment: Growth inhibition of human NCI-H522 cells assessed as cell growth at 10^-4 M incubated for 48 hrs by sulforhodamine B assay relative to control; conditions: NCI-H522, 48 h, read-out: Activity
# NCI-H23 [5] = experiment: Growth inhibition of human NCI-H23 cells assessed as cell growth at 10^-6 M incubated for 48 hrs by sulforhodamine B assay relative to control; conditions: NCI-H23, 48 h, read-out: Activity
# MOLT-4 = experiment: Growth inhibition of human MOLT4 cells assessed as cell growth at 10^-6 M incubated for 48 hrs by sulforhodamine B assay relative to control; conditions: MOLT-4, 48 h, read-out: Activity
# HL-60(TB) = experiment: Growth inhibition of human HL-60(TB) cells assessed as cell growth at 10^-8 M incubated for 48 hrs by sulforhodamine B assay relative to control; conditions: HL-60, 48 h, read-out: Activity
# SR = experiment: Growth inhibition of human SR cells assessed as cell growth at 10^-8 M incubated for 48 hrs by sulforhodamine B assay relative to control; conditions: read-out: Activity
# SK-MEL-2 [6] = experiment: Growth inhibition of human SK-MEL-2 cells assessed as cell growth at 10^-7 M incubated for 48 hrs by sulforhodamine B assay relative to control; conditions: SK-MEL-2, 48 h, read-out: Activity
# NCI-H322M = experiment: Growth inhibition of human NCI-H322M cells assessed as cell growth at 10^-6 M incubated for 48 hrs by sulforhodamine B assay relative to control; conditions: read-out: Activity
# RPMI-8226 [7] = experiment: Growth inhibition of human RPMI8226 cells assessed as cell growth at 10^-6 M incubated for 48 hrs by sulforhodamine B assay relative to control; conditions: RPMI-8226, 48 h, read-out: Activity
# SF-268 = experiment: Growth inhibition of human SF268 cells assessed as cell growth at 10^-7 M incubated for 48 hrs by sulforhodamine B assay relative to control; conditions: SF-268, 48 h, read-out: Activity
# A498 = experiment: Growth inhibition of human A498 cells assessed as cell growth at 10^-5 M incubated for 48 hrs by sulforhodamine B assay relative to control; conditions: A498, 48 h, read-out: Activity
# NCI-H522 [8] = experiment: Growth inhibition of human NCI-H522 cells assessed as cell growth at 10^-8 M incubated for 48 hrs by sulforhodamine B assay relative to control; conditions: NCI-H522, 48 h, read-out: Activity
# BT-549 [9] = experiment: Growth inhibition of human BT549 cells assessed as cell growth at 10^-4 M incubated for 48 hrs by sulforhodamine B assay relative to control; conditions: BT-549, 48 h, read-out: Activity
# SK-MEL-28 = experiment: Growth inhibition of human SK-MEL-28 cells assessed as cell growth at 10^-4 M incubated for 48 hrs by sulforhodamine B assay relative to control; conditions: SK-MEL-28, 48 h, read-out: Activity
# HCC 2998 [10] = experiment: Growth inhibition of human HCC2998 cells assessed as cell growth at 10^-4 M incubated for 48 hrs by sulforhodamine B assay relative to control; conditions: HCC 2998, 48 h, read-out: Activity
# HCC 2998 [11] = experiment: Growth inhibition of human HCC2998 cells assessed as cell growth at 10^-6 M incubated for 48 hrs by sulforhodamine B assay relative to control; conditions: HCC 2998, 48 h, read-out: Activity
# BT-549 [12] = experiment: Growth inhibition of human BT549 cells assessed as cell growth at 10^-7 M incubated for 48 hrs by sulforhodamine B assay relative to control; conditions: BT-549, 48 h, read-out: Activity
# OVCAR-8 = experiment: Growth inhibition of human OVCAR8 cells assessed as cell growth at 10^-7 M incubated for 48 hrs by sulforhodamine B assay relative to control; conditions: OVCAR-8, 48 h, read-out: Activity
# CAKI-1 = experiment: Growth inhibition of human Caki1 cells assessed as cell growth at 10^-4 M incubated for 48 hrs by sulforhodamine B assay relative to control; conditions: CAKI-1, 48 h, read-out: Activity
# HOP-62 = experiment: Growth inhibition of human HOP62 cells assessed as cell growth at 10^-7 M incubated for 48 hrs by sulforhodamine B assay relative to control; conditions: HOP-62, 48 h, read-out: Activity
# 786-0 [13] = experiment: Growth inhibition of human 786-0 cells assessed as cell growth at 10^-5 M incubated for 48 hrs by sulforhodamine B assay relative to control; conditions: 786-0, 48 h, read-out: Activity
# RPMI-8226 [14] = experiment: Growth inhibition of human RPMI8226 cells assessed as cell growth at 10^-8 M incubated for 48 hrs by sulforhodamine B assay relative to control; conditions: RPMI-8226, 48 h, read-out: Activity
# UACC-257 = experiment: Growth inhibition of human UACC257 cells assessed as cell growth at 10^-5 M incubated for 48 hrs by sulforhodamine B assay relative to control; conditions: UACC-257, 48 h, read-out: Activity
# SK-MEL-2 [15] = experiment: Growth inhibition of human SK-MEL-2 cells assessed as cell growth at 10^-6 M incubated for 48 hrs by sulforhodamine B assay relative to control; conditions: SK-MEL-2, 48 h, read-out: Activity
# KM12 = experiment: Growth inhibition of human KM12 cells assessed as cell growth at 10^-4 M incubated for 48 hrs by sulforhodamine B assay relative to control; conditions: KM12, 48 h, read-out: Activity
# RPMI-8226 [16] = experiment: Growth inhibition of human RPMI8226 cells assessed as cell growth at 10^-5 M incubated for 48 hrs by sulforhodamine B assay relative to control; conditions: RPMI-8226, 48 h, read-out: Activity
# Hs-578T = experiment: Growth inhibition of human Hs 578T cells assessed as cell growth at 10^-4 M incubated for 48 hrs by sulforhodamine B assay relative to control; conditions: read-out: Activity
# DU-145 = experiment: Growth inhibition of human DU145 cells assessed as cell growth at 10^-6 M incubated for 48 hrs by sulforhodamine B assay relative to control; conditions: DU-145, 48 h, read-out: Activity
# SF-295 = experiment: Growth inhibition of human SF295 cells assessed as cell growth at 10^-6 M incubated for 48 hrs by sulforhodamine B assay relative to control; conditions: SF-295, 48 h, read-out: Activity
structure (smiles),measurement,setting,value
CCCCOc1nc2ccccc2cc1C1CNC(=O)c2ccccc2N1 (centres undefined),growth at 100 µM,786-0 [1],-76%
same,growth at 10 µM,NCI-H23 [2],33%
same,growth at 10 µM,RXF 393,5%
same,growth at 0.1 µM,786-0 [3],100%
same,growth at 0.1 µM,OVCAR-4,98%
same,growth at 10 µM,NCI-H226,7%
same,growth at 100 µM,NCI-H522 [4],-35%
same,growth at 1 µM,NCI-H23 [5],91%
same,growth at 1 µM,MOLT-4,92%
same,growth at 0.01 µM,HL-60(TB),98%
same,growth at 0.01 µM,SR,86%
same,growth at 0.1 µM,SK-MEL-2 [6],99%
same,growth at 1 µM,NCI-H322M,86%
same,growth at 1 µM,RPMI-8226 [7],84%
same,growth at 0.1 µM,SF-268,92%
same,growth at 10 µM,A498,-21%
same,growth at 0.01 µM,NCI-H522 [8],90%
same,growth at 100 µM,BT-549 [9],-25%
same,growth at 100 µM,SK-MEL-28,-57%
same,growth at 100 µM,HCC 2998 [10],-20%
same,growth at 1 µM,HCC 2998 [11],93%
same,growth at 0.1 µM,BT-549 [12],104%
same,growth at 0.1 µM,OVCAR-8,98%
same,growth at 100 µM,CAKI-1,-22%
same,growth at 0.1 µM,HOP-62,98%
same,growth at 10 µM,786-0 [13],1%
same,growth at 0.01 µM,RPMI-8226 [14],95%
same,growth at 10 µM,UACC-257,48%
same,growth at 1 µM,SK-MEL-2 [15],86%
same,growth at 100 µM,KM12,-2%
same,growth at 10 µM,RPMI-8226 [16],9%
same,growth at 100 µM,Hs-578T,-25%
same,growth at 1 µM,DU-145,95%
same,growth at 1 µM,SF-295,59%
